In patent US7598072B2 (priority 2003, dated 2009):

Assays:
[1] = tested on: RCASBP(A)-EGFP (ASLV-A) in 293(TVA950) cells; format: cell-based, avian sarcoma and leukosis virus
[2] = tested on: RCASBP(A)-EGFP (ASLV-A) in 293(TVA800) cells; format: cell-based, avian sarcoma and leukosis virus
[3] = 30 mM NH4Cl for 10 hours, added at 20 minutes or later after initiating infection
[4] = 30 mM NH4Cl for 10 hours, added at time of initiating infection or 10 minutes later
[5] = 6 hour block with 30 mM NH4Cl, QPCR
[6] = 6 hour block with 30 mM NH4Cl, flow cytometry
[7] = 15 mM MβCD, 15 minutes, no NH4Cl

Compound	effect upon viral infectivity (QPCR) [1, 3]	effect on infection (QPCR of reverse-transcribed DNA) [1, 4]	viral infection during the period of inhibitor treatment ([1]; 30 mM NH4Cl, 6 hours)	decrease in viral infectivity ([1]; 6 hour 30 mM NH4Cl, irrespective of whether cyclodextrin had been added)	number of viral DNA products after NH4Cl release, relative to untreated cells [1, 5]	efficiency of infection (EGFP-positive cells) relative to untreated cells [1, 6]	infectivity on increasing time of NH4Cl treatment to 12 hours ([1]; 12 hours NH4Cl, data not shown)	effect upon viral infectivity (QPCR) [2, 3]	effect on infection (QPCR of reverse-transcribed DNA) [2, 4]	viral infection during the period of inhibitor treatment ([2]; 30 mM NH4Cl, 6 hours)	level of infection (late viral DNA products) after NH4Cl release, relative to untreated cells [2, 5]	efficiency of infection (EGFP-positive cells) relative to untreated cells [2, 6]	infectivity on increasing time of NH4Cl treatment to 12 hours ([2]; 12 hours NH4Cl, data not shown)	effect of cyclodextrin treatment by itself on viral infectivity [1, 7]	loss of infectivity ([2]; 15 mM MβCD 15 minutes combined with 6 hour 30 mM NH4Cl block at time of initiating infection)	effect of cyclodextrin treatment by itself on viral infectivity [2, 7]
Cl.N [NH4Cl, ammonium chloride]	greatly reduced effect	complete block	completely arrested	approximately 80%	10%	20%	further decrease	greatly reduced effect	complete block	completely arrested	approximately 60%	85%	did not affect			
methyl-β-cyclodextrin [MβCD]														only a minor effect	50%	only a minor effect
